In US20250066485A1, “USE OF INTEGRIN a5b1 INHIBITORS IN THE TREATMENT OF PULMONARY HYPERTENSION AND HEART FAILURE” (Morphic Therapeutic, Inc., priority 2022, published 2025):
Like-named read-outs stand apart in the source and are kept apart here.

What was measured:
[1] = tested on: Human PAH-RVFbs; assay: PAH-RVFbs proliferation and activation; format: cell-based; conditions: 0.25 μM, 1 μM, and 4 μM
Method: PAH patient samples were assessed for expression of fibronectin binding integrins. […] Human PAH-RVFbs were treated with integrin α5β1 inhibitor SMi at 0.25 μM, 1 μM, and 4 μM. […] (FIGS. 22A and 22B).

[2] = tested on: Primary rat cardiomyocytes; assay: PE-induced cardiomyocyte hypertrophy; format: cell-based; conditions: 100 μM PE; 0.25 μM, 1 μM, and 4 μM
Method: Primary rat cardiomyocytes were treated with 50 μM, 100 μM, or 200 μM, phenylephrine (PE). Expression of ITGα5, ITGαV, ITGβ1, ITGβ3, ITGβ5 were determined by western blot (FIG. 21A). Cells treated with 100 μM PE were simultaneously exposed to integrin α5β1 inhibitor SMi at 0.25 μM, 1 μM, and 4 μM.

[3] = tested on: MCT rats; assay: Monocrotaline (MCT) rat pulmonary hypertension model; format: in vivo
Method: MCT Animals were divided into study groups as follows: • (1) Non-MCT vehicle orally twice a day (BID) (n=6) • (2) MCT+PBS vehicle orally twice a day (BID) (n=8) • (3) MCT+SMi at 100 mpk orally BID (n=8)
MCT (60 mg/kg) was administered by subcutaneous injection. Animals were exposed to vehicle or SMi treatment for 2 weeks. Blood, RV and lung analysis was performed. Cells were assessed for expression of EVG, αSMA, PCNA, and C3C. […] FIG. 12A-12D show exemplary results of treatment with SMi in MCT rats. Occlusion score (FIG. 12A), vascular remodeling (FIG. 12B), apoptosis (FIG. 12C) and proliferation (FIG. 12D) were measured.
MCT animals were treated with SMi alone or in combination with SoC therapy (Macitentan (1 mg/kg)+Tadalafil (10 mg/kg) daily). MCT Animals were divided into study groups as follows: • (1) Non-MCT vehicle orally twice a day (BID) (n=6) • (2) MCT+PBS vehicle orally twice a day (BID) (n=8) • (3) MCT+SMi at 100 mpk orally BID (n=8) • (4) MCT+SMi at 100 mpk orally BID+SoC (Macitentan (1 mg/kg)+Tadalafil (10 mg/kg) daily (n=8).
MCT (60 mg/kg) was administered by subcutaneous injection at day 0. Beginning in week 3, animals were exposed to vehicle or SMi treatment for 2 weeks. (FIG. 23A) Blood, RV and lung analysis was performed.
To determine the selectivity of SMi for α5β1, MCT animals were prepared as described above and treated with SMi or a dual inhibitor of α5β1/αvβ1 (MRT).

[4] = tested on: SuHx rats; assay: Sugen/Hypoxia (SuHx) induced PAH rat model; format: in vivo
Method: Broad-spectrum pharmacological inhibition of α5β1 improves hemodynamics and vascular remodeling in Su/Hx rats with established PAH alone or in combination with standard of care.
Animals were injected with 20 mg/kg Sugen 5416 at day 0 and subjected to hypoxia conditions (10% oxygen) for 3 weeks. Echocardiography was performed at the start of treatment with integrin α5β1 inhibitors at week 3 and at week 5. Right heart catheterization was performed at the end of week 5. Tissues were harvested for analysis.

[5] = tested on: PAB rats; assay: Pulmonary Arterial Banding (PAB) rat model; format: in vivo
Method: Animals were divided into three study groups as follows: • (1) Control group/Sham (n=5) • (2) PAB+PBS vehicle orally twice a day (BID) (n=10) • (3) PAB+SMi at 100 mpk orally BID (n=10)
Pulmonary arterial constriction was surgically performed in rats at day 0. Beginning in week 4 following surgery, animals were exposed to vehicle or SMi treatment. Weekly echocardiography was performed from surgery to week 10. After a total of 10 weeks, animals were subjected to RV catheterization.
PAB rats were subjected to right heart catheterization (RHC) (using standard techniques and while the subject is in steady state). Treatment with integrin α5β1 inhibitor, SMi improved cardiac output, stroke volume, RVSP and RVEPD.

[6] = tested on: PAH-PASMCs; assay: Proliferation (Ki67) and apoptosis (annexin V) of PAH-PASMCs on Fb-coated plates; format: cell-based, human; conditions: 0.25 μM, 1 μM, and 4 μM on Fb-coated plates
Method: Integrin α5β1 inhibitors (MRT, SMi, P1D6, or M200) were assessed for proliferation and apoptosis on Fb-coated plates. FIG. 5A-5C show exemplary proliferation (Ki67) and apoptosis (annexin V) of PAH-PASMCs treated with integrin α5β1 inhibitors (MRT, SMi, P1D6, or M200).
PAH-PASMCs were treated with integrin α5β1 inhibitor SMi at 0.25 μM, 1 μM, and 4 μM on Fb-coated plates. Cells were evaluated by Western blot analysis to determine expression levels of ITGα5, ITGαV, ITGβ1, p-FAK, MCM2, PLK1, p-ERK, ERK, PCNA and Survivin in hPASMCs (FIG. 6A-6B).

[7] = tested on: SuHx mice; assay: Sugen/hypoxia (SuHx) mice model of PAH; format: in vivo, mouse; conditions: SMi 100 mpk PO BID, 339.1 10 mpk IP 3x week
Method: SuHx treated mice were prepared as described above and treated with integrin α5β1 antibody inhibitors (e.g., anti-mouse integrin α5β1 clone 339.1) or SMi. anti-mouse integrin α5β1 clone 339.1 is described in Bhaskar, V., Zhang, D., Fox, M. et al. A function blocking anti-mouse integrin α5β1 antibody inhibits angiogenesis and impedes tumor growth in vivo. J Transl Med 5, 61 (2007). doi.org/10.1186/1479-5876-5-61), which is hereby incorporated by reference in its entirety.
Mice were injected with 20 mg/kg Sugen 5416 (vascular endothelial growth factor receptor inhibitor) at day 0, day 7 and day 14 and subjected to hypoxia conditions (10% oxygen) for 3 weeks. Echocardiography was performed at the start of treatment with integrin α5β1 inhibitors at week 3 (e.g., day 21) and at the end of week 5. Right heart catheterization was performed at the end of week 5.
Cardiac function was measured including improved cardiac output, and stroke volume. Other features including media cell wall thickness, vascular remodeling, proliferation, and apoptosis were measured.
Mice were divided into the following treatment and control groups: • Control group (n=5) • Vehicle PO BID (n=10) • SMi 100 mpk PO BID (n=10) • Macitentan 15 mpk PO BID (n=15) • IgG isotype control10 mpk IP (3× week) (n=15) • 339.1 10 mpk IP (3× week) (n=15) • 339.1 10 mpk IP+Macitentan 15 mpk PO BID (n=15)

[8] = tested on: MCT animals; assay: MCT animals with a cardiac defect, echocardiography; format: in vivo; conditions: 100 mg/Kg PO BID, Day 14 to Day 27, PH phenotype not induced
Method: To test the impact of SMi on cardiac function, MCT animals with a cardiac defect were treated with SMi or sildenafil as follows (1) Non-MCT vehicle PO BID; (2) MCT+vehicle PO BID (3) MCT+SMi 100 mg/Kg PO BID (4) MCT+sildenafil 10 mg/Kg PO BID (5) MCT+sildenafil 30 mg/Kg PO BID (6) MCT+sildenafil 100 mg/Kg PO BID. Pulmonary hypertension phenotype was not induced in this study (MCT causes both vascular and cardiac injury). Treatment with SMi, vehicle or sildenafil was administered, twice a day, from Day 14 to Day 27. Echocardiogram monitoring of the progression of the disease was carried out on Day 0, Day 14 and on surgery day (Day 28) for all the animals. Blood samples were taken on Day 0, Day 14 and Day 28. Pulmonary artery maximum velocity, cardiac output, stroke volume, right ventricle anterior wall thickness and pulmonary artery acceleration time were determined. […] The data were used to calculate the cardiac output and the stroke volume as follows: The cardiac output was calculated using the following formula (JF Lewis et al. 1984): Cardiac output=heart rate×VTI((pulmonary artery diameter^2×3.1416)/4) The stroke volume was calculated using the following formula: Stroke volume=cardiac output/heart rate

[9] = cited from earlier work
[10] = at room temperature; cited from earlier work
[11] = tested on: hPASMCs; assay: hPASMC proliferation on fibronectin-coated plates; format: cell-based, human; conditions: fibronectin-coated 96 well plate, up to 5 days
Method: Antibody integrin α5β1 inhibitors were evaluated to determine whether integrin α5β1 inhibitors (e.g., P1D6 antibody or M200 antibody) could impair proliferation. Cells were seeded at 3000 cells/well in a 96 well plate coated with fibronectin. The next day integrin α5β1 inhibitor treatments were added and proliferation was monitored for up to 5 days.

[12] = molecular target: rat α5β1 (cells expressing rat α5β1) (rat); assay: cell-based or functional assay
[13] = molecular target: integrin α5β1 on hPASMCs (human) (UniProt P08648); assay: cell-based or functional assay
integrin α5β1 on hPASMCs (human), sequence (P08648 42-1049, chain 1 of 2): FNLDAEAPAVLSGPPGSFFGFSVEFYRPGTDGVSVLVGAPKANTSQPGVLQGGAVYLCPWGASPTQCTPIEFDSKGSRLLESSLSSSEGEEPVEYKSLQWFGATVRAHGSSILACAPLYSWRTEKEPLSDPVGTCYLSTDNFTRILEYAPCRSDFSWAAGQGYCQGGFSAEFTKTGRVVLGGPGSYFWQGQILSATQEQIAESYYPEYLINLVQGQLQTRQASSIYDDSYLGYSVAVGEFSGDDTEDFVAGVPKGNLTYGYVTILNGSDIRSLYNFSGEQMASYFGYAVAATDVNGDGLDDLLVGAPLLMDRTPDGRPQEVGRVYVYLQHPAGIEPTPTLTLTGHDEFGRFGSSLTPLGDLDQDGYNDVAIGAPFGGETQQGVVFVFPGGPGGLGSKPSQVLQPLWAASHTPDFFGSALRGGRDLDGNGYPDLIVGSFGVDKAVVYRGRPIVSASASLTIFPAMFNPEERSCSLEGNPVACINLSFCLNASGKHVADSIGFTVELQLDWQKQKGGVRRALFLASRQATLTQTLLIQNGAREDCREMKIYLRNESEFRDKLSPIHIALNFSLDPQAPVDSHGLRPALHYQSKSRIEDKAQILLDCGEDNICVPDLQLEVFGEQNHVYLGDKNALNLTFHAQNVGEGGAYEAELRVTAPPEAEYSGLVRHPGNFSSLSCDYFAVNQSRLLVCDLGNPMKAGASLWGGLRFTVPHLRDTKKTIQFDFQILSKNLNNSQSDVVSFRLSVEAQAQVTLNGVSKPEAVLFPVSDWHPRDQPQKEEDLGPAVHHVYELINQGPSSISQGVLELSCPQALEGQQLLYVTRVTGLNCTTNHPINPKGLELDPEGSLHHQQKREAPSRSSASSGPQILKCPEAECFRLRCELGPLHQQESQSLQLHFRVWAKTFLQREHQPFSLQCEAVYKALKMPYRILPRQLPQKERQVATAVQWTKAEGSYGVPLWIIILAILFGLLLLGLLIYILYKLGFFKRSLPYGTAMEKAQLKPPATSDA
integrin α5β1 on hPASMCs (human), sequence (P05556 21-798, chain 2 of 2, further chain): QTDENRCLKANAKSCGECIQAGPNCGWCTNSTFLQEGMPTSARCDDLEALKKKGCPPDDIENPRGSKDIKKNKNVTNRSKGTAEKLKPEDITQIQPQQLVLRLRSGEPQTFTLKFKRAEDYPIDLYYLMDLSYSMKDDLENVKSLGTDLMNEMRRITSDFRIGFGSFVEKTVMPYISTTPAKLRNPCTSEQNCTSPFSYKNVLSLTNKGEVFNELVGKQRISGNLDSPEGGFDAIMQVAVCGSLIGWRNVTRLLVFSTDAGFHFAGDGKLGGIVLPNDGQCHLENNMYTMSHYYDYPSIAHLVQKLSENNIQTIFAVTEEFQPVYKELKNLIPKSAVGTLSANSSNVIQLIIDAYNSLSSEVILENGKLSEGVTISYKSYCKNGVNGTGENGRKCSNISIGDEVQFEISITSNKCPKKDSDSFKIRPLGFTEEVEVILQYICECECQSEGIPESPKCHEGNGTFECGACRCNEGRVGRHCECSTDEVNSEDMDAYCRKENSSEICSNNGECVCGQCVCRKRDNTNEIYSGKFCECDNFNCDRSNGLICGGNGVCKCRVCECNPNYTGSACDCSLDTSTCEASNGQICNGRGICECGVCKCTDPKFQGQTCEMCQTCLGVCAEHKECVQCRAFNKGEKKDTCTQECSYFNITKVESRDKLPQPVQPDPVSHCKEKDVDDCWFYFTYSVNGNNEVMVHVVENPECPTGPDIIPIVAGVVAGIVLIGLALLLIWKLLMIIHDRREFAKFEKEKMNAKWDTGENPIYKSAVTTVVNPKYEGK

[14] = molecular target: rat α5β1 (cells expressing rat α5β1) (rat, UniProt A0A0G2K1E2 94-1099; P49134 21-798); assay: cell-based or functional assay

Molecule: Cc1nn(C)c2c(C(C(=O)O)N3CC(OCCCCc4ccc5c(n4)NCCC5)C3)cccc12 (stereo not drawn) [SMi]
- PAH-RVFbs proliferation and activation [1]: decreases PAH-RVFbs proliferation and activation in a dose dependent manner
- PE-induced adult rat cardiomyocytes hypertrophy [2]: prevents PE-induced adult rat cardiomyocytes hypertrophy
- cardiac function vascular remodeling (EVG, media wall thickness, mPAP, cardiac output, RVFAC) [3]: improved cardiac function vascular remodeling
- vascular remodeling ([3]; 100 mpk orally BID, 2 weeks): improved vascular remodeling
- hypertrophy and right ventricle (RV) fibrosis ([3]; SMi alone or in combination with SoCs): improved
- vascular remodeling ([3]; SMi alone or with Maci (1 mg/kg) + Tada (10 mg/kg)): improved vascular remodeling
- apoptosis ([4]; SMi and/or SoCs): improved
- fibrosis ([4]; SMi and/or SoCs): reduced
- hypertrophy ([4]; SMi and/or SoCs): reduced
- media cell wall thickness ([4]; SMi and/or SoCs): improved
- proliferation ([4]; SMi and/or SoCs): improved
- stroke volume ([4]; SMi and/or SoCs): improved
- vascular remodeling ([4]; SMi and/or SoCs): improved
- cardiac output ([4]; SMi and/or SoCs (Macitentan, Tadalafil)): improved
- hypertrophy and right ventricle (RV) fibrosis ([5]; 100 mpk orally BID): improved
- cardiac function over time compared to vehicle control ([5]; echocardiography): directly improved cardiac function
- RVEPD ([5]; right heart catheterization): improved
- RVSP ([5]; right heart catheterization): improved
- cardiac output ([5]; right heart catheterization): improved
- stroke volume ([5]; right heart catheterization): improved
- apoptosis (annexin V) [6]: increased apoptosis
- proliferation (Ki67) [6]: impaired proliferation
- cardiac and vascular improvement [7]: cardiac and vascular improvement
- cardiac output [8]: considerable increase

Molecule: CN1CC(=O)N2[C@H](c3ccc4c(c3)OCO4)c3[nH]c4ccccc4c3C[C@@H]2C1=O [Tadalafil, tadalafil]
- half-life ([9]; in patients with PAH): 35 h

Molecule: CCCCC[C@H](O)/C=C/[C@@H]1[C@H]2C/C(=C/CCCC(=O)O)O[C@H]2C[C@H]1O [Flolan, epoprostenol]
- half-life ([9]; in vivo): 0.05 to 0.083 h
- stability [10]: 8 h

Molecule: M200: integrin α5β1 antibody, heavy chain SEQ ID NO: 1, light chain SEQ ID NO: 2
- proliferation of hPASMCs [11]: reduced proliferation

Molecule: P1D6 (antibody)
- IC50 (nM), cell adhesion assay [12]: 5.6 nM
- IC50 (ug/ml), cell adhesion assay [12]: 0.84 µg/mL
- reduction of hPASMCs proliferation [13]: 70%

B1: volociximab (M200) (antibody, human IgG4, kappa, V domains shown)
VH: QVQLKESGPGLVAPSQSLSITCTISGFSLTDYGVHWVRQPPGKGLEWLVVIWSDGSSTYNSALKSRMTIRKDNSKSQVFLIMNSLQTDDSAMYYCARHGTYYGMTTTGDALDYWGQGTSVTVSS
VL: QIVLTQSPAIMSASLGERVTMTCTASSSVSSNYLHWYQQKPGSAPNLWIYSTSNLASGVPARFSGSGSGTSYSLTISSMEAEDAATYYCHQYLRSPPTFGGGTKLEIKR
- IC50 (nM), cell adhesion assay [14]: 6.8 nM
- IC50 (ug/ml), cell adhesion assay [14]: 1 µg/mL
